Assay results taken from patent US10584159B2, “Renilla based biosensors for monitoring biomolecule localization and trafficking in cells” (The Royal Institution for the Advancement of …, priority 2014, dated 2020).
Starred links: 1 amine or outer side, 2 acyl side, 3 side chain; linkers in the order of their positions; H or OH if unused. Positions of bridges follow the written chain, without caps; N, C: chain ends. Non-standard residues stand in square brackets, D forms with d. Residues, ends and D or L forms follow the SMILES beside them. *: point of attachment. Leu(3R-OH,Nα-propionyl) = CCC(=O)N[C@H](C(=O)*)[C@H](O)C(C)C; X1 = CC(C)[C@@H](O[*:3])[C@H](N[*:1])C(=O)[*:2]; NMeT = CN[C@H](C(=O)O)[C@@H](C)O; dPhLac = O=C(O)[C@H](O)Cc1ccccc1; NMeA = CN[C@@H](C)C(=O)O; NMeDha = C=C(NC)C(=O)O

Tested on: Acetylcholine receptors
Test: PKN-based RhoA activation BRET assay, carbachol stimulation
Format: cell-based
Conditions: 100 nM Ubo, 100 μM carbachol 70 s
Method: PKN-based RhoA activation assay. For FIGS. 25B-D, HEK293SL cells were grown in DMEM supplemented with 6% fetal bovine serum (FBS) and 20 μg/ml gentamycin, at 37° C. Cells were seeded at a density of 7.5×10^5 cells per 100 mm dishes and were transiently transfected the next day with constructs encoding AT1R (3 μg) along with PKN-crib-RlucII (90 ng) and rGFP-CAAX (480 ng) using calcium phosphate method as described previously. After 24 h, cells were detached and seeded onto poly-ornithine-coated 96-well white plates at a density of 25 000 cells per well in media. The next day, cells were washed once with Tyrode's buffer and left in 80 μl of Tyrode's buffer at 37° C. When indicated, cells were treated with Ubo-Qic 100 nM for 30 min or C3 toxin for 3 μg/ml (in FIG. 25I), 4 hours at 37° C. Cell stimulation and BRET measurements were done at RT. BRET signals were monitored by addition of Coel-400a to a final concentration of 5 μM using a Synergy2 (BioTek®) microplate reader. Filter set was 410±80 nm and 515±30 nm for detecting the RlucII Renilla luciferase (donor) and rGFP (acceptor) light emission. […] BRET was measured at 37° C., using a Tristar Microplate Reader (Berthold Technologies) equipped with BRET400-GFP2/10 filter set (acceptor, 515±20 nm; and donor, 400±70 nm filters). […] BRET was measured at 37° C., using a Tristar Microplate Reader (Berthold Technologies).

C=C1C(=O)N[C@@H](C)C(=O)N(C)[C@@H](C)C(=O)N[C@@H]([C@H](OC(=O)[C@@H](NC(=O)CC)[C@H](O)C(C)C)C(C)C)C(=O)N(C)[C@@H]([C@@H](C)OC)C(=O)O[C@H](C(C)C)[C@H](NC(C)=O)C(=O)O[C@H](Cc2ccccc2)C(=O)N1C [Ubo-QIC] (Ac-[X1][dPhLac][NMeDha]A[NMeA][X1](Leu(3R-OH,Nα-propionyl))[NMeT](Me); ester 1-C)
effect on CCh-mediated response (Rho sensor): completely blocked
